Source: patent US20260028326A1, “COMPOUND BASED ON ISOINDOLINE-SUBSTITUTED GLUTARIMIDE BACKBONE AND USE THEREOF” (GLUETACS THERAPEUTICS (SHANGHAI) CO., LTD., priority 2022, published 2026)

Molecular target: human Cereblon WT GST-tagged protein (Homo sapiens (Human), UniProt Q96SW2)
Assay: CRBN-binding affinity, HTRF (CEREBLON BINDING kit)
Method in brief: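 HTRF competition readout: compounds compete with a thalidomide-Re conjugate for GST-tagged wild-type human CRBN detected via Eu-labelled anti-GST antibody. Inhibition rate derived relative to protein-free blank wells.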

human Cereblon WT GST-tagged protein, sequence (Q96SW2 whole entry): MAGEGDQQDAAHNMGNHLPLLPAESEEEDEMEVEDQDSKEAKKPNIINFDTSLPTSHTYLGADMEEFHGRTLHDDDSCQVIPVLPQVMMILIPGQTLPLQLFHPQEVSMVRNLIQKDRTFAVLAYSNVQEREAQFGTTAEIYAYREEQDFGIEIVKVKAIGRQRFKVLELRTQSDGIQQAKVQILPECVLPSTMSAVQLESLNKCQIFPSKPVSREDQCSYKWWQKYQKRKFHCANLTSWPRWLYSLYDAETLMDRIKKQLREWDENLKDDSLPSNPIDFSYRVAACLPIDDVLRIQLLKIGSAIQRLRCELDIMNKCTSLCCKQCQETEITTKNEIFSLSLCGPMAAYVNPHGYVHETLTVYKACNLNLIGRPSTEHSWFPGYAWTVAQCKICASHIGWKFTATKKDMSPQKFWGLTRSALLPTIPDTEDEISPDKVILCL

Structure (SMILES)	IC50 [nM]
O=C1CCC(N2Cc3cc(C(=O)N4CCN(C(=O)C5=C(c6ccc(F)cc6)CCCC5)CC4)ccc3C2=O)C(=O)N1 (centres unmarked) [GT-05448, 3-(5-(4-(4′-fluoro-3,4,5,6-tetrahydro-[1,1′-biphenyl]-2-carbonyl)piperazine-1-carbonyl)-1-oxoisoindolin-2-yl)piperidine-2,6-dione]	1390
O=C1CCC(N2Cc3cc(N4C5CCC4CN(C(=O)c4ccccc4-c4ccc(Cl)cc4)C5)ccc3C2=O)C(=O)N1 (centres unmarked) [GT-05875, 3-(5-(3-(4′-chloro-[1,1′-biphenyl]-2-carbonyl)-3,8-diazabicyclo[3.2.1]octan-8-yl)-1-oxoisoindolin-2-yl)piperidine-2,6-dione]	510
O=C1CCC(N2Cc3cc(C(=O)N4C5CC4CN(Cc4ccccc4-c4ccc(Cl)cc4)C5)ccc3C2=O)C(=O)N1 (centres unmarked) [GT-05643, 3-(5-(3-((4′-chloro-[1,1′-biphenyl]-2-yl)methyl)-3,6-diazabicyclo[3.1.1]heptane-6-carbonyl)-1-oxoisoindolin-2-yl)piperidine-2,6-dione]	590
CC1(C)CCC(C(=O)N2C3CCC2CN(Cc2ccc4c(c2)CN(C2CCC(=O)NC2=O)C4=O)C3)=C(c2ccc(F)cc2)C1 (centres unmarked) [GT-05517, 3-(5-((8-(4′-fluoro-5,5-dimethyl-3,4,5,6-tetrahydro-[1,1′-biphenyl]-2-carbonyl)-3,8-diazabicyclo[3.2.1]octan-3-yl)methyl)-1-oxoisoindolin-2-yl)piperidine-2,6-dione]	600
O=C1CCC(N2Cc3c(C(=O)N4CCN(Cc5ccccc5-c5ccc(Cl)cc5)CC4)cccc3C2=O)C(=O)N1 (centres unmarked) [GT-05486, 3-(4-(4-((4′-chloro-[1,1′-biphenyl]-2-yl)methyl)piperazine-1-carbonyl)-1-oxoisoindolin-2-yl)piperidine-2,6-dione]	1560
CC1(C)CCC(C(=O)N2CC3CCC(C2)N3c2ccc3c(c2)CN(C2CCC(=O)NC2=O)C3=O)=C(c2ccc(F)cc2)C1 (centres unmarked) [GT-05492, 3-(5-(3-(4′-fluoro-5,5-dimethyl-3,4,5,6-tetrahydro-[1,1′-biphenyl]-2-carbonyl)-3,8-diazabicyclo[3.2.1]octan-8-yl)-1-oxoisoindolin-2-yl)piperidine-2,6-dione]	830
CC1(C)CCC(C(=O)N2C3CCC2CN(C(=O)c2ccc4c(c2)CN(C2CCC(=O)NC2=O)C4=O)C3)=C(c2ccc(Cl)cc2)C1 (centres unmarked) [GT-05540, 3-(5-(8-(4′-chloro-5,5-dimethyl-3,4,5,6-tetrahydro-[1,1′-biphenyl]-2-carbonyl)-3,8-diazabicyclo[3.2.1]octane-3-carbonyl)-1-oxoisoindolin-2-yl)piperidine-2,6-dione]	960
O=C1CCC(N2C(=O)c3ccc(N4CC5CC(C4)N5Cc4ccccc4-c4ccc(Cl)cc4)cc3C2=O)C(=O)N1 (centres unmarked) [GT-05373, 5-(6-((4′-chloro-[1,1′-biphenyl]-2-yl)methyl)-3,6-diazabicyclo[3.1.1]heptan-3-yl)-2-(2,6-dioxopiperidin-3-yl)isoindoline-1,3-dione]	1490
O=C1CCC(N2Cc3cc(CN4CC5CCC(C4)N5Cc4ccccc4-c4ccc(Cl)cc4)ccc3C2=O)C(=O)N1 (centres unmarked) [GT-05618, 3-(5-((8-((4′-chloro-[1,1′-biphenyl]-2-yl)methyl)-3,8-diazabicyclo[3.2.1]octan-3-yl)methyl)-1-oxoisoindolin-2-yl)piperidine-2,6-dione]	580
CC1(C)CCC(CN2CC3CCC(C2)N3Cc2ccc3c(c2)CN(C2CCC(=O)NC2=O)C3=O)=C(c2ccc(Cl)cc2)C1 (centres unmarked) [GT-03889, 3-(5-((3-((4′-chloro-5,5-dimethyl-3,4,5,6-tetrahydro-[1,1′-biphenyl]-2-yl)methyl)-3,8-diazabicyclo[3.2.1]octan-8-yl)methyl)-1-oxoisoindolin-2-yl)piperidine-2,6-dione]	710
CC1(C)CCC(CN2C3CC2CN(Cc2ccc4c(c2)CN(C2CCC(=O)NC2=O)C4=O)C3)=C(c2ccc(Cl)cc2)C1 (centres unmarked) [GT-03995, 3-(5-((6-((4′-chloro-5,5-dimethyl-3,4,5,6-tetrahydro-[1,1′-biphenyl]-2-yl)methyl)-3,6-diazabicyclo[3.1.1]heptan-3-yl)methyl)-1-oxoisoindolin-2-yl)piperidine-2,6-dione]	630
O=C1CCC(N2Cc3cc(C(=O)N4CCN(CC5=C(c6ccc(F)cc6)CCCC5)CC4)ccc3C2=O)C(=O)N1 (centres unmarked) [GT-05863, 3-(5-(4-((4′-fluoro-3,4,5,6-tetrahydro-[1,1′-biphenyl]-2-yl)methyl)piperazine-1-carbonyl)-1-oxoisoindolin-2-yl)piperidine-2,6-dione]	1020
CC1(C)CCC(CN2C3CC2CN(c2ccc4c(c2)C(=O)N(C2CCC(=O)NC2=O)C4=O)C3)=C(c2ccc(F)cc2)C1 (centres unmarked) [GT-05387, 2-(2,6-dioxopiperidin-3-yl)-5-(6-((4′-fluoro-5,5-dimethyl-3,4,5,6-tetrahydro-[1,1′-biphenyl]-2-yl)methyl)-3,6-diazabicyclo[3.1.1]heptan-3-yl)isoindoline-1,3-dione]	810
CC1(C)CCC(C(=O)N2C3CCC2CN(Cc2ccc4c(c2)CN(C2CCC(=O)NC2=O)C4=O)C3)=C(c2ccc(Cl)cc2)C1 (centres unmarked) [GT-05523, 3-(5-((8-(4′-chloro-5,5-dimethyl-3,4,5,6-tetrahydro-[1,1′-biphenyl]-2-carbonyl)-3,8-diazabicyclo[3.2.1]octan-3-yl)methyl)-1-oxoisoindolin-2-yl)piperidine-2,6-dione]	860
O=C1CCC(N2Cc3cc(CN4C5CC4CN(C(=O)c4ccccc4-c4ccc(Cl)cc4)C5)c(F)cc3C2=O)C(=O)N1 (centres unmarked) [GT-05667, 3-(5-((3-(4′-chloro-[1,1′-biphenyl]-2-carbonyl)-3,6-diazabicyclo[3.1.1]heptan-6-yl)methyl)-6-fluoro-1-oxoisoindolin-2-yl)piperidine-2,6-dione]	750

The next lines start with the values.

IC50 [nM]	Structure (SMILES)
710	CC1(C)CCC(C(=O)N2CCN(Cc3ccc4c(c3F)CN(C3CCC(=O)NC3=O)C4=O)CC2)=C(c2ccc(Cl)cc2)C1 (centres unmarked) [GT-05525, 3-(5-((4-(4′-chloro-5,5-dimethyl-3,4,5,6-tetrahydro-[1,1′-biphenyl]-2-carbonyl)piperazin-1-yl)methyl)-4-fluoro-1-oxoisoindolin-2-yl)piperidine-2,6-dione]
1570	CC1(C)CCC(CN2C[C@H]3C[C@@H]2CN3C(=O)c2ccc3c(c2)CN(C2CCC(=O)NC2=O)C3=O)=C(c2ccc(Cl)cc2)C1 (stereo partly drawn) [GT-05441, 3-(5-((1R,4R)-5-((4′-chloro-5,5-dimethyl-3,4,5,6-tetrahydro-[1,1′-biphenyl]-2-yl)methyl)-2,5-diazabicyclo[2.2.1]heptane-2-carbonyl)-1-oxoisoindolin-2-yl)piperidine-2,6-dione]
350	CC1(C)CCC(C(=O)N2CCN(Cc3ccc4c(c3)CN(C3CCC(=O)NC3=O)C4=O)CC2)=C(c2ccc(F)cc2)C1 (centres unmarked) [GT-05520, 3-(5-((4-(4′-fluoro-5,5-dimethyl-3,4,5,6-tetrahydro-[1,1′-biphenyl]-2-carbonyl)piperazin-1-yl)methyl)-1-oxoisoindolin-2-yl)piperidine-2,6-dione]
990	CC1(C)CCC(C(=O)N2CCN(Cc3cc(F)c4c(c3)CN(C3CCC(=O)NC3=O)C4=O)CC2)=C(c2ccc(Cl)cc2)C1 (centres unmarked) [GT-05527, 3-(5-((4-(4′-chloro-5,5-dimethyl-3,4,5,6-tetrahydro-[1,1′-biphenyl]-2-carbonyl)piperazin-1-yl)methyl)-7-fluoro-1-oxoisoindolin-2-yl)piperidine-2,6-dione]
190	CC1(C)CCC(CN2C[C@H]3C[C@@H]2CN3Cc2ccc3c(c2)CN(C2CCC(=O)NC2=O)C3=O)=C(c2ccc(Cl)cc2)C1 (stereo partly drawn) [GT-03887, 3-(5-(((1R,4R)-5-((4′-chloro-5,5-dimethyl-3,4,5,6-tetrahydro-[1,1′-biphenyl]-2-yl)methyl)-2,5-diazabicyclo[2.2.1]heptan-2-yl)methyl)-1-oxoisoindolin-2-yl)piperidine-2,6-dione]
1580	CC1(C)CCC(CN2CC3CCC2CN3Cc2cccc3c2CN(C2CCC(=O)NC2=O)C3=O)=C(c2ccc(Cl)cc2)C1 (centres unmarked) [GT-05461, 3-(4-((5-((4′-chloro-5,5-dimethyl-3,4,5,6-tetrahydro-[1,1′-biphenyl]-2-yl)methyl)-2,5-diazabicyclo[2.2.2]octan-2-yl)methyl)-1-oxoisoindolin-2-yl)piperidine-2,6-dione]
670	CC1(C)CCC(CN2C[C@@H]3C[C@H]2CN3C(=O)c2ccc3c(c2)CN(C2CCC(=O)NC2=O)C3=O)=C(c2ccc(Cl)cc2)C1 (stereo partly drawn) [GT-05442, 3-(5-((1S,4S)-5-((4′-chloro-5,5-dimethyl-3,4,5,6-tetrahydro-[1,1′-biphenyl]-2-yl)methyl)-2,5-diazabicyclo[2.2.1]heptane-2-carbonyl)-1-oxoisoindolin-2-yl)piperidine-2,6-dione]
1480	CC1(C)CCC(C(=O)N2CCN(Nc3ccc4c(c3)CN(C3CCC(=O)NC3=O)C4=O)CC2)=C(c2ccc(Cl)cc2)C1 (centres unmarked) [GT-05417, 3-(5-((4-(4′-chloro-5,5-dimethyl-3,4,5,6-tetrahydro-[1,1′-biphenyl]-2-carbonyl)piperazin-1-yl)amino)-1-oxoisoindolin-2-yl)piperidine-2,6-dione]
1900	CC1(C)CCC(CN2CC3CCC2CN3Cc2cccc3c2C(=O)N(C2CCC(=O)NC2=O)C3)=C(c2ccc(Cl)cc2)C1 (centres unmarked) [GT-05462, 3-(7-((5-((4′-chloro-5,5-dimethyl-3,4,5,6-tetrahydro-[1,1′-biphenyl]-2-yl)methyl)-2,5-diazabicyclo[2.2.2]octan-2-yl)methyl)-1-oxoisoindolin-2-yl)piperidine-2,6-dione]
610	CC1(C)CCC(C(=O)N2CC(=Cc3ccc4c(c3)CN(C3CCC(=O)NC3=O)C4=O)C2)=C(c2ccc(F)cc2)C1 (centres unmarked) [GT-05489, 3-(5-((1-(4′-fluoro-5,5-dimethyl-3,4,5,6-tetrahydro-[1,1′-biphenyl]-2-carbonyl)azetidin-3-ylidene)methyl)-1-oxoisoindolin-2-yl)piperidine-2,6-dione]
1790	CC1(C)CCC(CN2C3CCC2CN(Cc2cc4c(cc2F)C(=O)N(C2CCC(=O)NC2=O)C4)C3)=C(c2ccc(Cl)cc2)C1 (centres unmarked) [GT-05535, 3-(5-((8-((4′-chloro-5,5-dimethyl-3,4,5,6-tetrahydro-[1,1′-biphenyl]-2-yl)methyl)-3,8-diazabicyclo[3.2.1]octan-3-yl)methyl)-6-fluoro-1-oxoisoindolin-2-yl)piperidine-2,6-dione]
